pIC50: −log10 of the molar value.
Assays:
SARS CoV [1] = conditions: Vero E6 cells
SARS CoV [2] = assay: in vitro; conditions: African green monkey
in vitro = conditions: African green monkey
SARS CoV [3] = assay: microbe, parasite or virus in culture; conditions: Severe acute respiratory syndrome coronavirus, Vero C1008, read-out: Anti-SARS CoV IC50

COc1cc2c3c(c4cc(OC)c(OC)cc4c2cc1OC)CN1CCCC1C3 (stereo not drawn) [Compound 1]
reduction of levels of CPEs caused by SARS CoV infection (in words) (SARS CoV [1]): effectively reduced
cytotoxicity per se (in words) (Vero E6 cells): low cytotoxicity
selectivity ratio (SARS CoV [2]): 23.3
CC50 (in vitro): 420 nM
pIC50 (SARS CoV [3]): 7.74

COc1cc2c3c(c4cc(OC)c(OC)cc4c2cc1OC)CN1CCCCC1C3 (stereo not drawn) [Compound 11]
reduction of levels of CPEs caused by SARS CoV infection (in words) (SARS CoV [1]): effectively reduced
cytotoxicity per se (in words) (Vero E6 cells): low cytotoxicity

COc1cc2c3c(c4cc(OC)c(OC)cc4c2cc1OC)C(O)C1CCCCN1C3 (stereo not drawn) [Compound 12]
selectivity ratio (SARS CoV [2]): > 7.1
CC50 (in vitro): > 100 nM
pIC50 (SARS CoV [3]): 7.85

COc1cc2c3c(c4cc(OC)c(OC)cc4c2cc1OC)C[N+]1([O-])CCCCC1C3 (stereo not drawn) [Compound 18]
selectivity ratio (SARS CoV [2]): > 56
pIC50 (SARS CoV [3]): > 7.00

COc1cc2c3cc(OC)c(OC)cc3c3c[n+]4c(cc3c2cc1OC)CCCC4.[Br-] [Compound 19]
reduction of levels of CPEs caused by SARS CoV infection (in words) (SARS CoV [1]): effectively reduced
cytotoxicity per se (in words) (Vero E6 cells): low cytotoxicity

COc1ccc2c3c(c4cc(OC)c(OC)cc4c2c1)CN1CCCC1C3OC(C)=O (stereo not drawn) [Compound 32]
melting point: 196 to 198 °C

— patent US8440649B2 (priority 2009, dated 2013)
